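Exposure lasted 48 hours, with cells grown in 96-well plates and compounds tested at five concentrations. GI50 = concentration required for 50% inhibition of growth. TGI: concentration producing complete growth inhibition.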
Tests used:
Assay in all cases: NCI-60 cell line screen, 48 h
BT-549 breast = test system: BT-549 breast
PC-3 prostate = test system: PC-3 prostate
MCF7 breast = test system: MCF7 breast
DU-145 prostate = test system: DU-145 prostate
T-47D breast = test system: T-47D breast
NCI/ADR-RES ovarian = test system: NCI/ADR-RES ovarian

Structure (SMILES) | GI50 (BT-549 breast) | TGI (BT-549 breast) | GI50 (PC-3 prostate) | TGI (PC-3 prostate) | GI50 (MCF7 breast) | TGI (MCF7 breast) | GI50 (DU-145 prostate) | TGI (DU-145 prostate) | GI50 (T-47D breast) | TGI (T-47D breast) | GI50 (NCI/ADR-RES ovarian) | TGI (NCI/ADR-RES ovarian)
COc1cc([N+](=O)[O-])c2ncccc2c1O | 21.2 µM | 87.3 µM | 6.54 µM | > 100 µM | 2.96 µM | > 100 µM | 2.32 µM | 5.73 µM | 27 µM | > 100 µM | 13.3 µM | 86.9 µM
CCc1ccc(/C=C2/SC(=S)NC2=O)cc1 | 20.9 µM | 58.2 µM | 23.3 µM | > 100 µM | 21.2 µM | > 85.5 µM | 38.6 µM | > 100 µM | 23.5 µM | 89.2 µM | 25.3 µM | 89.4 µM
C=C(C)[C@@H]1CC[C@]2(C#N)CC[C@]3(C)[C@H](CC[C@@H]4[C@@]5(C)CCCNC(C)(C)[C@@H]5CC[C@]43C)[C@@H]12 | 1.75 µM | 3.42 µM | 2.7 µM | 10.7 µM | 1.53 µM | 2.91 µM | 1.85 µM | 3.48 µM | 1.76 µM | 4.05 µM | 1.89 µM | 3.63 µM
COc1cc(Nc2ncc(-c3ccccc3)o2)cc(OC)c1OC | 3.24 µM | > 25 µM | 7.3 µM | > 25 µM | 0.0695 µM | > 25 µM | 5.98 µM | > 25 µM | 0.231 µM | > 25 µM | 1.38 µM | > 25 µM
CCn1c(-c2cc3ccccc3cc2OC(=O)c2ccccc2)n[nH]c1=S | 34 µM | > 50 µM | 19.6 µM | > 50 µM | > 50 µM | > 50 µM | > 50 µM | > 50 µM | 38.3 µM | > 50 µM | 23.2 µM | > 50 µM
N#CC(C#N)=C/C=C/c1cccc([N+](=O)[O-])c1 |  |  | 2.09 µM | 19.3 µM | 0.482 µM | 9.55 µM | 1.05 µM | 12.8 µM | 1.4 µM | 6.81 µM | 0.652 µM | 5.04 µM
C=C1C(=O)O[C@H]2[C@H](OC(C)=O)[C@@H](C)CCC/C(C)=C/CC[C@]3(CO3)[C@H](O)C[C@@H]12 | 3.77 µM | 15.4 µM |  |  | 3.24 µM | 12 µM | 2.56 µM | 10.2 µM | 2.8 µM | 9.88 µM | 5.92 µM | 35.2 µM
C[C@@H]1CC[C@H]2C(CN3CCN(CC4=C(C(F)(F)F)O[C@@H]5O[C@@]6(C)CC[C@H]7[C@H](C)CC[C@@H]4[C@@]57OO6)CC3)=C(C(F)(F)F)O[C@@H]3O[C@@]4(C)CC[C@@H]1[C@]32OO4 | 2.53 µM | > 100 µM | 0.351 µM | > 100 µM | 3.13 µM | > 100 µM | 16.9 µM | > 100 µM | 0.458 µM | > 100 µM | > 100 µM | > 100 µM
Cc1ccc(Nc2ccnc(Nc3cccc(C(N)=O)c3)n2)cc1O | 6.4 µM | > 25 µM | 5.42 µM | > 25 µM | 8.28 µM | > 25 µM | 7.14 µM | > 25 µM | 4.74 µM | > 21.2 µM | > 18.7 µM | > 25 µM
Fc1cc(Nc2ccc3c(OCCCN4CCOCC4)cccc3n2)ccc1Cl | 5.16 µM | 18.7 µM | 2.08 µM | 5.83 µM |  |  | 3.62 µM | 13.1 µM | 2.27 µM | 7.16 µM | 3.09 µM | 11.2 µM
ClCc1ccc(Cn2cnc3ncnc(Cl)c32)cc1 | 3.75 µM | 16.9 µM | 1.58 µM | 2.93 µM | 1.35 µM | 2.94 µM |  |  | 1.29 µM | 2.86 µM | 1.81 µM | 4.68 µM
NC(=O)c1ccc(-c2c3ccccc3cc3c2ccc2ccccc23)cc1 |  |  | 4.88 µM | 24.5 µM | 1.88 µM | 11.6 µM | 4.4 µM | 26.2 µM | 3.19 µM | > 100 µM | 1.65 µM | 18.1 µM
CN(C)c1ccc(/C=N/Nc2ccc(-c3nc4ccccc4[nH]3)cc2)cc1 | 12.4 µM | 35.5 µM | 7.27 µM | > 50 µM | 8.44 µM | 35.6 µM | 37.8 µM | > 50 µM | 8.95 µM | 40.9 µM | 10.7 µM | 32 µM
CC(C)=CCC[C@](C)(O)[C@H]1CC[C@]2(C)[C@@H]1CC[C@@H]1[C@@]3(C)CC[C@H](OC(=O)CCC(=O)O)C(C)(C)[C@@H]3CC[C@]12C | > 100 µM | > 100 µM | 8.79 µM | 28.4 µM | 29.3 µM | > 100 µM | 27.5 µM | > 100 µM | 19.4 µM | > 100 µM | 30.4 µM | > 100 µM
C1CCN2CC34CC(CC5CCCN(C6CCCC3N6)C54)C2C1 (centres undefined) |  | > 100 µM |  | > 100 µM |  | > 100 µM |  | > 100 µM |  | > 100 µM |  | > 100 µM
COCCOCCOCCOCCOc1ccc2c(c1)C(=O)c1nc3ncccc3c(=O)n1-2 | 1.1 µM | 2.3 µM | 1.67 µM | 16.5 µM | 0.799 µM | 2.2 µM | 0.54 µM | 1.79 µM | 3.03 µM | 9.04 µM | 2.09 µM | 6.41 µM
COCCn1cc(-c2csc(-c3c[nH]c4ccc(F)cc34)n2)c2cccnc21 | 4.26 µM | > 100 µM | 5.07 µM | > 100 µM | 2.09 µM | > 100 µM | 18.8 µM | > 100 µM |  |  | 2.17 µM | 29.2 µM
COc1cc(C=NCC(=O)CSC(c2ccccc2)c2ccccc2)cc(OC)c1OC | 26.5 µM | 93.9 µM | 9.09 µM | > 100 µM | 19.8 µM | > 100 µM | 40.8 µM | > 100 µM | 4.48 µM | 53.7 µM | 7.36 µM | > 100 µM
CC(C)(C)c1ccc(C(O)(c2ccc(C(C)(C)C)cc2)c2ccc(C(C)(C)C)cc2)cc1 |  | > 100 µM |  | > 100 µM |  | > 100 µM |  | > 100 µM |  | > 100 µM |  | > 100 µM
Cc1cc(C#Cc2ccccc2)ccc1-n1c(/C=C/c2ccc(O)cc2)nc2ccccc2c1=O |  |  | 3.24 µM | > 100 µM | 2.72 µM | 11 µM | 4.87 µM | > 100 µM | 2.02 µM | 8.13 µM | 3.09 µM | 42 µM
